Source: patent US20130005811A1, “ANTIMICROBIAL TREATMENT FOR SEEDS AND SPROUTS” (priority 2010, published 2013)
Values joined by “and” are separate entries in the source; they are usually repeats but may differ in a detail not shown here. Equal values may be shown once.

How the values were obtained:
S. typhimurium DT 104 = assay: Salmonella on alfalfa seeds with an initial inoculum of 10^4 CFU/g; type: cell-based, Salmonella typhimurium DT104
Procedure: Five isolates of Escherichia coli O157:H7, including strain 932 (human isolate), E009 (beef isolate), E0018 (cattle isolate), E0122 (cattle isolate), E0139 (deer jerky isolate); and five isolates of Salmonella typhimurium DT104, including strain H2662 (cattle isolate), 11942A (cattle isolate), 13068A (cattle isolate), 152N17-1 (dairy isolate) and H3279 (human isolate) were used. Nalidixic acid-resistant (50 μg/ml) E. coli O157:H7 were used to facilitate enumeration. Each E. coli O157:H7 and Salmonella strain was grown in tryptic soy broth (TSB, Beckon Dickinson, Sparks, Md.) at 37° C. for 18 hr. Approximately equal cell numbers of each of the five strains were combined and used as a 5-strain mixture with cell numbers being adjusted by spectrophotometric (Spectronic Instruments, Rochester, N.Y.) determination as described in Zhao et al., (2009) J. Food Prot. 72: 928-936, incorporated herein by reference in its entirety. Bacterial cell numbers were confirmed by plating 0.1 ml of serial dilutions (1:10) in 0.1% peptone on tryptic soy agar (TSA, Beckon Dickinson) and Sorbitol MacConkey agar (SMA, Oxoid, Hampshire, UK) for E. coli O157:H7, and TSA and XLD agar (Beckon Dickinson) for Salmonella and incubating all plates at 37° C. for 24 hr, after which colonies were counted.
Levulinic acid (0.5%) and 0.05% sodium dodecyl sulfate (SDS) obtained from Sigma-Aldrich (St. Louis, Mo.) were tested in combination at 21±2° C. for their antimicrobial activity to E. coli O157:H7 and S. typhimurium on alfalfa seeds as a wash treatment. Calcium hypochlorite (Arch Chemicals, Smyrna, Ga.) at 20,000 μg/ml (ppm) was used as the positive control, and deionized water was used as the negative control.
Before each trial, 25 ml of sterile tap water and 25 g of alfalfa seeds were added to a WHIRL-PAK® bag (Nasco, Fort Atkinson, Wis.) and pummeled in a stomacher blender at 150 rpm for 1 min. Duplicate 0.1 ml portions of the contents were plated on SMA, XLD, and TSA plates to detect E. coli O157:H7 and Salmonella, and enumerate aerobic bacteria counts according to the protocols described below. Only E. coli O157:H7-negative and Salmonella-negative alfalfa seeds were used. Dry seeds (50 g) were individually placed in a sterilized glass beaker (1 L) and 5 ml of a mixture of E. coli O157:H7 or S. typhimurium DT 104 (high inocula at 10^8-10^9 CFU/ml and low inocula at 10^3-10^4 CFU/ml) was inoculated on the surface of the seeds in each glass beaker under a laminar flow hood. A sterile plastic spoon was used to mix for 2 min the seeds with bacterial suspension. […]
Inactivation of E. coli O157:H7 and Salmonella on Alfalfa Seeds: Inoculated, dried alfalfa seeds (50 g samples) were placed in a 1000 ml glass beaker containing 200 ml of treatment solution and agitated by a magnetic stir bar at 150 ppm at 21° C. for 0, 1, 2, 5, 10, 20, 30, and 60 min. Following treatment, 25 g of seeds was placed in a stomacher bag containing 25 ml 0.1M phosphate buffer, pH 7.2 (PBS) for levulinic acid plus SDS-treated seeds or neutralizing buffer ([…], Ltd., Worthing, England). The suspension was serially (1:10) diluted in 0.1% peptone water and 0.1 ml of each dilution was surface-plated in duplicate onto TSA and Sorbitol MacConkey agar containing 50 μg nalidixic acid/ml (TSA-NA and SMA-NA) for E. coli O157:H7, and on TSA and XLD containing ampicillin (32 μg/ml), tetracycline (16 μg/ml) and streptomycin (64 μg/ml) (TSA+ and XLD+) for S. typhimurium DT 104. All plates were incubated at 37° C. for 48 hr.

alfalfa seeds = assay: Determination of alfalfa seed germination percentage; type: in vivo; conditions: for Germination rate, average: average of 3 replicas
Procedure: Treated and non-treated seeds (5 g or number of seeds counted per replicate) were placed on the surface of a plastic tray. Three plastic trays were stacked vertically and top tray was filled with 100 ml of sterile deionized water or tap water which fed to the lower trays to maintain uniform moisture content for the seeds. The seeds were incubated at 22° C. for 72 hr. Each evaluation was based on three replicates of 200-400 seeds each. A seed was considered to have germinated if the seed coat was broken and a visible sprout was extending at least 8 mm from the original seed. Swollen seeds or ruptured seeds with sprout tissue still inside were not counted as germinated, because such seeds rarely sprouted completely after an additional 24 hr of incubation.

[1] = dried at 21° C. for 2 hr, treated for 20 min (10 min in beaker and 10 min in a stomacher bag) at 21° C.
[2] = treatment for 1 h at 21° C., Ca(OCl)2 pH 11.4

Structure (SMILES): [Ca+2].[O-]Cl.[O-]Cl [20,000 ppm, Ca(OCl)2, pH 11.4, Calcium hypochlorite]
- Salmonella on treated seeds by direct plating method (S. typhimurium DT 104; 10 min in glass beaker then pummeled 10 min in stomacher bag): negative
- S. typhimurium DT 104 count in sample No. 1-10 (seeds) (S. typhimurium DT 104; [1]): −
- S. typhimurium DT 104 count in sample No. 1-10 (treated supernatant) (S. typhimurium DT 104; [1]): −
- Salmonella in solutions used for treatment (S. typhimurium DT 104; enrichment culture after use): negative
- Salmonella detection in samples treated for 10 min (S. typhimurium DT 104; none pathogen-positive by direct plating): sporadically positive by enrichment culture assay
- Effect on alfalfa seed germination (alfalfa seeds; 1 hr at 21° C., compared to tap water): substantially reduced germination percentage
- Germination rate, average (alfalfa seeds; [2]): 47%
- Germination rate, average (alfalfa seeds; treatment for 1 h at 21° C., listed as 20,000 ppm calcium hypochlorite): 47.3%
- Germination rate, average (alfalfa seeds; treatment for 1 h at 21° C., row): 47%
- Germination Ratio (Percentage), per replica (alfalfa seeds; [2]): 62% and 34% and 46%
- Germination Ratio (germinated/total seeds), per replica (alfalfa seeds; [2]): 124/200 and 68/200 and 92/200
